ChEMBL document CHEMBL1201862, “PubChem BioAssay data set” (2004)
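Compound exposure: 48 hours, 5 concentrations, 96-well plates. At the GI50, growth is halved.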 Calls of active or inactive are those of the source. Cut-off read from the data, not from the text of the source: active = GI50 up to about 1.1 µM and inactive = higher.

Experiments:
Assay in all cases: NCI tumour cell line growth inhibition, 48 h
[1] = tested on: 786-0
[2] = tested on: A498
[3] = tested on: A549
[4] = tested on: ACHN
[5] = tested on: BT-549
[6] = tested on: CAKI-1
[7] = tested on: CCRF-CEM
[8] = tested on: COLO 205
[9] = tested on: DU-145
[10] = tested on: EKVX
[11] = tested on: HCC 2998
[12] = tested on: HCT-116
[13] = tested on: HCT-15
[14] = tested on: HL-60
[15] = tested on: HOP-62
[16] = tested on: HOP-92
[17] = tested on: HT-29
[18] = tested on: Hs-578T
[19] = tested on: IGROV-1
[20] = tested on: K562
[21] = tested on: KM12
[22] = tested on: LOX IMVI
[23] = tested on: M14
[24] = tested on: MCF7
[25] = tested on: MDA-MB-231
[26] = tested on: MDA-MB-435
[27] = tested on: MOLT-4
[28] = tested on: Malme-3M
[29] = tested on: NCI-H226
[30] = tested on: NCI-H23
[31] = tested on: NCI-H460
[32] = tested on: NCI-H522
[33] = tested on: NCI/ADR-RES
[34] = tested on: OVCAR-3
[35] = tested on: OVCAR-4
[36] = tested on: OVCAR-5
[37] = tested on: OVCAR-8
[38] = tested on: PC-3
[39] = tested on: RXF 393
[40] = tested on: SF-268
[41] = tested on: SF-295
[42] = tested on: SF-539
[43] = tested on: SK-MEL-28
[44] = tested on: SK-MEL-5
[45] = tested on: SK-OV-3
[46] = tested on: SN12C
[47] = tested on: SNB-19
[48] = tested on: SNB-75
[49] = tested on: SW-620
[50] = tested on: T47D
[51] = tested on: TK-10
[52] = tested on: U-251
[53] = tested on: UACC-257
[54] = tested on: UACC-62
[55] = tested on: UO-31
[56] = tested on: RPMI-8226
[57] = tested on: SK-MEL-2
[58] = tested on: SR

In the case of `CS/C(=N\Nc1cnc2ccccc2n1)NS(=O)(=O)c1cc(C)c(Cl)cc1Cl`, the GI50 [1] is reported as > 100 µM (inactive), the GI50 [2] is reported as 43.3 µM (inactive) and the GI50 [3] is reported as > 100 µM (inactive). For the same compound, the GI50 [4] was > 100 µM (inactive), the GI50 [5] was > 100 µM (inactive) and the GI50 [6] was 53.5 µM (inactive). The GI50 [7] was > 100 µM (inactive), the GI50 [8] was > 100 µM (inactive) and the GI50 [9] was > 100 µM (inactive). For the same compound, the GI50 [10] was 29 µM (inactive), the GI50 [11] was > 100 µM (inactive) and the GI50 [12] was > 100 µM (inactive). The GI50 [13] was greater than 100 µM, the GI50 [14] was 88.7 µM (inactive) and the GI50 [15] was > 100 µM (inactive). The GI50 [16] was 15.5 µM (inactive), the GI50 [17] was > 100 µM (inactive) and the GI50 [18] was > 100 µM (inactive). The GI50 [19] was 21.1 µM (inactive), the GI50 [20] was > 100 µM (inactive) and the GI50 [21] was > 100 µM (inactive). The GI50 [22] was 61.1 µM (inactive), the GI50 [23] was > 100 µM (inactive) and the GI50 [24] was 65.6 µM (inactive). The GI50 [25] was 44.2 µM (inactive), the GI50 [26] was > 100 µM (inactive) and the GI50 [27] was > 100 µM (inactive). For the same compound, the GI50 [28] was > 100 µM (inactive), the GI50 [29] was > 100 µM (inactive) and the GI50 [30] was > 100 µM (inactive). The GI50 [31] was > 100 µM (inactive), the GI50 [32] was > 100 µM (inactive) and the GI50 [33] was 84.7 µM (inactive). The GI50 [34] was 59.6 µM (inactive), the GI50 [35] was > 100 µM (inactive) and the GI50 [36] was > 100 µM (inactive). For the same compound, the GI50 [37] was > 100 µM (inactive), the GI50 [38] was > 100 µM (inactive) and the GI50 [39] was > 100 µM (inactive). For the same compound, the GI50 [40] was > 100 µM (inactive), the GI50 [41] was > 100 µM (inactive) and the GI50 [42] was > 100 µM (inactive). The GI50 [43] was > 100 µM (inactive), the GI50 [44] was > 100 µM (inactive) and the GI50 [45] was > 100 µM (inactive). For the same compound, the GI50 [46] was > 100 µM (inactive), the GI50 [47] was > 100 µM (inactive) and the GI50 [48] was 43.2 µM (inactive). The GI50 [49] was > 100 µM (inactive), the GI50 [50] was > 100 µM (inactive) and the GI50 [51] was 82 µM (inactive). For the same compound, the GI50 [52] was > 100 µM (inactive), the GI50 [53] was > 100 µM (inactive) and the GI50 [54] was 50.7 µM (inactive). The GI50 [55] was 33.9 µM (inactive).

For `[O-][S+](Nc1ccccc1)c1ccc(N2CCOCC2)cc1` (centres undefined), the GI50 [1] was 88.9 µM (inactive), the GI50 [3] was 43.9 µM (inactive) and the GI50 [4] was 65.8 µM (inactive). For the same compound, the GI50 [5] was 6.82 µM (inactive), the GI50 [7] was 54.2 µM (inactive) and the GI50 [8] was 59.6 µM (inactive). The GI50 [9] was 51.4 µM (inactive), the GI50 [10] was 94.6 µM (inactive) and the GI50 [11] was 91.2 µM (inactive). The GI50 [12] was 21.2 µM (inactive), the GI50 [13] was 13 µM and the GI50 [14] was 53.8 µM (inactive). The GI50 [15] was > 100 µM (inactive), the GI50 [17] was 36.3 µM (inactive) and the GI50 [18] was > 100 µM (inactive). For the same compound, the GI50 [19] was 13.6 µM (inactive), the GI50 [20] was 27.3 µM (inactive) and the GI50 [21] was 23.6 µM (inactive). For the same compound, the GI50 [22] was 71 µM (inactive), the GI50 [23] was > 100 µM (inactive) and the GI50 [24] was 57.4 µM (inactive). For the same compound, the GI50 [25] was 86.7 µM (inactive), the GI50 [26] was 32.7 µM (inactive) and the GI50 [27] was 44.7 µM (inactive). For the same compound, the GI50 [28] was 36.4 µM (inactive), the GI50 [29] was > 100 µM (inactive) and the GI50 [30] was > 100 µM (inactive). For the same compound, the GI50 [31] was 42.6 µM (inactive), the GI50 [32] was 32.8 µM (inactive) and the GI50 [33] was 51.9 µM (inactive). The GI50 [34] was > 100 µM (inactive), the GI50 [35] was > 100 µM (inactive) and the GI50 [36] was > 10 µM (inactive). The GI50 [37] was > 100 µM (inactive), the GI50 [56] was 58.7 µM (inactive) and the GI50 [40] was 15.4 µM (inactive). The GI50 [41] was > 100 µM (inactive), the GI50 [42] was 35.8 µM (inactive) and the GI50 [43] was > 100 µM (inactive). For the same compound, the GI50 [57] was > 100 µM (inactive), the GI50 [44] was 39.8 µM (inactive) and the GI50 [46] was > 100 µM (inactive). For the same compound, the GI50 [47] was > 100 µM (inactive), the GI50 [58] was 60.3 µM (inactive) and the GI50 [49] was 30.1 µM (inactive). The GI50 [50] was 13.7 µM (inactive), the GI50 [51] was > 100 µM (inactive) and the GI50 [52] was > 100 µM (inactive). The GI50 [53] was 34.2 µM (inactive), the GI50 [54] was 9.12 µM (inactive) and the GI50 [55] was 10.8 µM (inactive).

With `CCOC(=O)C(CC(C)C)NC(=O)CSc1nnc(COc2ccc(Cl)cc2)n1-c1ccccc1` (centres undefined) the GI50 [1] was 15.3 µM (inactive), the GI50 [2] was 12.7 µM (inactive) and the GI50 [3] was 21.2 µM (inactive). The GI50 [4] was 13.3 µM (inactive), the GI50 [5] was 17.7 µM (inactive) and the GI50 [7] was 5.08 µM (inactive). The GI50 [8] was 18.2 µM (inactive), the GI50 [9] was 17.1 µM (inactive) and the GI50 [11] was 10.4 µM (inactive). The GI50 [12] was 14.8 µM (inactive), the GI50 [13] was 18.5 µM and the GI50 [14] was 21 µM (inactive). For the same compound, the GI50 [15] was 19.4 µM (inactive), the GI50 [16] was 18.6 µM (inactive) and the GI50 [17] was 18.5 µM (inactive). For the same compound, the GI50 [18] was 22.3 µM (inactive), the GI50 [19] was 15.4 µM (inactive) and the GI50 [20] was 19.3 µM (inactive). The GI50 [21] was 18 µM (inactive), the GI50 [22] was 14.9 µM (inactive) and the GI50 [23] was 18 µM (inactive). The GI50 [24] was 18.5 µM (inactive), the GI50 [25] was 16.9 µM (inactive) and the GI50 [26] was 16.9 µM (inactive). For the same compound, the GI50 [27] was 4.51 µM (inactive), the GI50 [28] was 19.3 µM (inactive) and the GI50 [29] was 22.4 µM (inactive). For the same compound, the GI50 [30] was 16 µM (inactive), the GI50 [31] was 14.9 µM (inactive) and the GI50 [33] was 20.5 µM (inactive). The GI50 [34] was 10.5 µM (inactive), the GI50 [35] was 16.2 µM (inactive) and the GI50 [36] was 19.9 µM (inactive). For the same compound, the GI50 [38] was 17.1 µM (inactive), the GI50 [56] was 16.4 µM (inactive) and the GI50 [39] was 16.6 µM (inactive). For the same compound, the GI50 [40] was 18.2 µM (inactive), the GI50 [42] was 21.8 µM (inactive) and the GI50 [43] was 16.7 µM (inactive). The GI50 [57] was 16.3 µM (inactive), the GI50 [44] was 17.1 µM (inactive) and the GI50 [45] was 27.2 µM (inactive). For the same compound, the GI50 [46] was 15.6 µM (inactive), the GI50 [47] was 17.3 µM (inactive) and the GI50 [48] was 16.5 µM (inactive). The GI50 [58] was 2.3 µM (inactive), the GI50 [49] was 20 µM (inactive) and the GI50 [50] was 14.4 µM (inactive). For the same compound, the GI50 [51] was 17.9 µM (inactive), the GI50 [52] was 19.3 µM (inactive) and the GI50 [53] was 11.2 µM (inactive). For the same compound, the GI50 [54] was 16.4 µM (inactive) and the GI50 [55] was 1.86 µM (inactive).
